Assay results from ChEMBL document CHEMBL1201862, “PubChem BioAssay data set” (2004).
Blank lines part the entries; values can stand above or below the compound they belong to. Activity calls are given as the source filed them.

What was measured:
[1] = Luminescence-based dose response cell-based high throughput screening assay for cytotoxic compounds using the IEC-6 intestinal epithelial cell line. [Related pubchem assays: 1858 (Summary AID.), 1825 (Counterscreen.), 1907 (Confirmation screen.)]; assay type: functional
Cytochrome P450 2C19 = Cytochrome P450 2C19 (Homo sapiens, UniProt P33261); assay: Cytochrome panel assay with activity outcomes. Panel member name: p450-cyp2c19 Compounds with AC50 equal or less than 10 uM are considered active; assay type: functional; conditions: read-out: AC50
[2] = biological target: Sphingosine 1-phosphate receptor 2 (Homo sapiens, UniProt O95136); assay: Dose Response Cell Based Assay for Antagonists of the S1P2 Receptor. [Related pubchem assays: 856, 736 ]; assay type: functional
Cytochrome P450 2C9 = Cytochrome P450 2C9 (Homo sapiens, UniProt P11712)
[3] = biological target: Mitogen-activated protein kinase 10 (Homo sapiens, UniProt P53779); assay: Dose response biochemical screening assay for inhibitors of c-Jun N-Terminal Kinase 3 (JNK3). [Related pubchem assays: 746 ]
[4] = biological target: T1, Aryl hydrocarbon receptor (Homo sapiens, UniProt P35869); assay: Luminescence-based cell-based high throughput dose response assay for activators of the Aryl Hydrocarbon Receptor (AHR). [Related pubchem assays: 2796 (Primary screen (AHR activators in singlicate)), 2845 (Confirmation screen (AHR activators in triplicate)), 434939 (Counterscreen (PXR activators in triplicate)), 2804 (Summary (AHR activators))]; assay type: ADME
T1 sequence (P35869 whole entry): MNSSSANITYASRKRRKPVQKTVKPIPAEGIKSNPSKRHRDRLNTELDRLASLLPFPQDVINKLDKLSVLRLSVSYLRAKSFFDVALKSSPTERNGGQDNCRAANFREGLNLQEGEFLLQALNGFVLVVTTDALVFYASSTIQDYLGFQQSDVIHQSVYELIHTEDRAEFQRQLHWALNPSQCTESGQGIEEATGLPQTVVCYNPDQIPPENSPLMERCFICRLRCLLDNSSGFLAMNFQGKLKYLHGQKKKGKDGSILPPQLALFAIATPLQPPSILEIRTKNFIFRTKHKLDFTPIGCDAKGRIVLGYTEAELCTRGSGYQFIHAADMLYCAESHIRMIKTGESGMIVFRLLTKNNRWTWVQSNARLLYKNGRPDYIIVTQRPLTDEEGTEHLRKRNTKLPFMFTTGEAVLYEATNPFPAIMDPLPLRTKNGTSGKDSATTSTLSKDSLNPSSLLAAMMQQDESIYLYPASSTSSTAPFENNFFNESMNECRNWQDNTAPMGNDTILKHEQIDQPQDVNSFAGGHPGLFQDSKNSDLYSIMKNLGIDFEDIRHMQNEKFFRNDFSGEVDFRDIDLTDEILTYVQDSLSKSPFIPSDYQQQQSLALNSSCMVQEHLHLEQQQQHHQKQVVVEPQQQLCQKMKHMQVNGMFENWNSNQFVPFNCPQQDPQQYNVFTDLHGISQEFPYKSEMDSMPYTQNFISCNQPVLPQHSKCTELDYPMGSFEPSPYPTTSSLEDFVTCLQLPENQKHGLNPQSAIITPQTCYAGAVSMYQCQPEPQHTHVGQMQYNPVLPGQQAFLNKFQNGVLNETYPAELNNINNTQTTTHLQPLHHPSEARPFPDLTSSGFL

[5] = biological target: T2, Corticotropin-releasing factor receptor 2/Corticotropin-releasing factor-binding protein (Homo sapiens, UniProt P24387+Q13324); assay: activators of CRF receptor 2 with binding protein – uHTS hits, confirmation (AID 602473); assay type: functional; conditions: read-out: EC50_Mean
T2 sequence (Q13324 whole entry): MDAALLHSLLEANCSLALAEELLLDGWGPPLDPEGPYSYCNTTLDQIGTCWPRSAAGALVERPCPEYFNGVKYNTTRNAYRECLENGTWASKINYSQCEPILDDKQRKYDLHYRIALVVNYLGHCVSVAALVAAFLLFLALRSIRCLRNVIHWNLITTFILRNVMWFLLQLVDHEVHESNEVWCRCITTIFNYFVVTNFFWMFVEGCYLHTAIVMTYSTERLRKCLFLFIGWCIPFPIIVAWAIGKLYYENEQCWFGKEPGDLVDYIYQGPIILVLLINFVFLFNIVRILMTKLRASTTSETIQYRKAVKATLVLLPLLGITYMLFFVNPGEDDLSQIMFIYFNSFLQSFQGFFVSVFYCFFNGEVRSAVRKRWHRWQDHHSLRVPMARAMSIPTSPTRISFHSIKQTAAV
T2 sequence (P24387 whole entry): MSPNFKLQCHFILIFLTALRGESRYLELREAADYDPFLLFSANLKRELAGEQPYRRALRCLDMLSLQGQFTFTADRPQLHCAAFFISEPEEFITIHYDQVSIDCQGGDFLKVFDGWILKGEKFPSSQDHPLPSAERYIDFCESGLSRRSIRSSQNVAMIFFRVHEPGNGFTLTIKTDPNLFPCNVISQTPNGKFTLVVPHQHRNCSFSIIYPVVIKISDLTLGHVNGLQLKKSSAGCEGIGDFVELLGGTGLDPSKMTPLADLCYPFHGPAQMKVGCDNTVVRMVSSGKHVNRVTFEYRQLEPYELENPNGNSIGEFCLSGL

[6] = biological target: T3, Tyrosine-protein phosphatase non-receptor type 7 (Homo sapiens, UniProt P35236); assay: inhibitors of human HePTP phosphatase, […], biochemical, absorbance, leukemia target (AID 521); assay type: functional
T3 sequence (P35236 whole entry): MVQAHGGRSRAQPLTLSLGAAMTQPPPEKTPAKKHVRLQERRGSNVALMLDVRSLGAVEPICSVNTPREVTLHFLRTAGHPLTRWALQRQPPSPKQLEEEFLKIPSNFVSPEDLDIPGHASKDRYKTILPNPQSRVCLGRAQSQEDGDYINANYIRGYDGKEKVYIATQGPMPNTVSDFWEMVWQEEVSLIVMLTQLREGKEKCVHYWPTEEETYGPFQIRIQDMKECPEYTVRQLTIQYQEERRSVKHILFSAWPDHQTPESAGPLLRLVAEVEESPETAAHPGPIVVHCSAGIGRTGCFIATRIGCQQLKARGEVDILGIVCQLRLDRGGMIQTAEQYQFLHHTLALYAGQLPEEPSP

[7] = cytotoxicity in HPDE-C7 cells, cell-based, fluorescence, HTS (AID 430); assay type: functional; conditions: Homo sapiens
Estrogen receptor beta [8] = biological target: T4, Estrogen receptor beta (Homo sapiens, UniProt Q92731); assay: ERβ–SRC-3 coactivator interaction inhibitors, confirmation, orthogonal assay, biochemical, ELISA, streptavidin-HRP readout (AID 1060)
Ephrin type-A receptor 4 = Ephrin type-A receptor 4 (Mus musculus, UniProt Q03137); assay: inhibitors of EphA4 binding to KYL peptide, primary screen, biochemical, colorimetric, mouse EphA4 (AID 689); assay type: functional
[9] = NIH-3T3 fibroblast cytotoxicity, dose response, cytotoxicity control, cell-based, fluorescence, Alamar Blue, secondary assay (AID 2327); assay type: functional;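 further: NIH-3T3 mouse fibroblasts cultured with fluconazole at 8 µg/mL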
[10] = biological target: T5, Heat shock factor protein 1 (Mus musculus, UniProt P38532); assay: HSF1 potentiators in luciferase reporter cells, confirmation, cell-based, NIH3T3, luminescence, dose retest (AID 435004); assay type: functional;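 further: stress induced by proteasome inhibitor MG132 added 30 min after compound; luciferase reporter driven by HSF1 response element in NIH3T3 cells; actives raise luminescence as potentiators of the MG132 stress response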
T5 sequence (P38532 whole entry): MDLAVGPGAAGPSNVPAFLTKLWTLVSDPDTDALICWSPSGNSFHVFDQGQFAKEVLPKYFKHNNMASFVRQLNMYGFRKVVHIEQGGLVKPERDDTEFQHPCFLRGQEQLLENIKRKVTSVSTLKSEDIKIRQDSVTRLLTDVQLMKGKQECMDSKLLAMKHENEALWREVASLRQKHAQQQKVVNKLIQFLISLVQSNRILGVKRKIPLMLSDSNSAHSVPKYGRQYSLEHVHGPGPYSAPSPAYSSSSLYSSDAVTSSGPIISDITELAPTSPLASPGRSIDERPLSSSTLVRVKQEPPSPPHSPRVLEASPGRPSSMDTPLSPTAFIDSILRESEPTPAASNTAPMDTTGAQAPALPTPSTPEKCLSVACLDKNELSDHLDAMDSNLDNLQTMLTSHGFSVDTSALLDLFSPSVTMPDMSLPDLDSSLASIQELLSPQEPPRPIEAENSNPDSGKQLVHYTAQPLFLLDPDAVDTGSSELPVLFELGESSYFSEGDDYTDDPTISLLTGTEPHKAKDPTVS

[11] = biological target: Induced myeloid leukemia cell differentiation protein Mcl-1 (Homo sapiens, UniProt Q07820); assay type: functional
[12] = C. albicans growth with fluconazole, confirmation, fluorescence, retest (AID 2467); assay type: functional, cell-based
[13] = cytotoxicity in KRAS-transformed pancreatic duct cells, primary screen, cell-based, fluorescence, HTS (AID 431); assay type: functional; conditions: Homo sapiens;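 further: cell line used: HPDE-C7K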
Estrogen receptor beta [14] = biological target: T4, Estrogen receptor beta

T4 sequence (Q92731 whole entry): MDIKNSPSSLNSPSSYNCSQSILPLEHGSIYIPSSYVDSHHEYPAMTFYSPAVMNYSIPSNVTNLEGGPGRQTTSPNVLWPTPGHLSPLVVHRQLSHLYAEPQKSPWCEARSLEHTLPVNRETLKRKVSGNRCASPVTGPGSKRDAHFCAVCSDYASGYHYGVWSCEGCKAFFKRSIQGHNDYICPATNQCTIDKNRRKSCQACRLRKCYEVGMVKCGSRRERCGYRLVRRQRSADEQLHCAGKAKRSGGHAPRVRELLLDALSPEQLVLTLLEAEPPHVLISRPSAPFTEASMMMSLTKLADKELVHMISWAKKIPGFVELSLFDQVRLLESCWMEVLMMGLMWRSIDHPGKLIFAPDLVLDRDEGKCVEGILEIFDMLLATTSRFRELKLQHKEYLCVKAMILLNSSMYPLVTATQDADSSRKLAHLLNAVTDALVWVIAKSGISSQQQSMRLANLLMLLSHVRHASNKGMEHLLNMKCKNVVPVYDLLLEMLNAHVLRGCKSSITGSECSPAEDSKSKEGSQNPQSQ
Sequence of Mitogen-activated protein kinase 10 (P53779 whole entry): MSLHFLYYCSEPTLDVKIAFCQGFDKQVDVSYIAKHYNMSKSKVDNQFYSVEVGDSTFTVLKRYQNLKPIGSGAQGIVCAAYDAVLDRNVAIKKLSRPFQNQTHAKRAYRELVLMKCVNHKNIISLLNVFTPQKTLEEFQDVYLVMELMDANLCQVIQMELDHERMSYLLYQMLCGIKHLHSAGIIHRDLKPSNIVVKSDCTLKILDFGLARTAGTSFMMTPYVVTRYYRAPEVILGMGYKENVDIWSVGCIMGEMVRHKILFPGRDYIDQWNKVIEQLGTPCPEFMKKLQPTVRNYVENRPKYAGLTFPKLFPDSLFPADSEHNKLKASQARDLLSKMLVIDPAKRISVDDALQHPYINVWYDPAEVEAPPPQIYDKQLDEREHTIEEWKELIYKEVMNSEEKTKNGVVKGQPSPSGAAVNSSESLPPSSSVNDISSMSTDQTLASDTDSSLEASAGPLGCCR
Sequence of Ephrin type-A receptor 4 (Q03137 whole entry): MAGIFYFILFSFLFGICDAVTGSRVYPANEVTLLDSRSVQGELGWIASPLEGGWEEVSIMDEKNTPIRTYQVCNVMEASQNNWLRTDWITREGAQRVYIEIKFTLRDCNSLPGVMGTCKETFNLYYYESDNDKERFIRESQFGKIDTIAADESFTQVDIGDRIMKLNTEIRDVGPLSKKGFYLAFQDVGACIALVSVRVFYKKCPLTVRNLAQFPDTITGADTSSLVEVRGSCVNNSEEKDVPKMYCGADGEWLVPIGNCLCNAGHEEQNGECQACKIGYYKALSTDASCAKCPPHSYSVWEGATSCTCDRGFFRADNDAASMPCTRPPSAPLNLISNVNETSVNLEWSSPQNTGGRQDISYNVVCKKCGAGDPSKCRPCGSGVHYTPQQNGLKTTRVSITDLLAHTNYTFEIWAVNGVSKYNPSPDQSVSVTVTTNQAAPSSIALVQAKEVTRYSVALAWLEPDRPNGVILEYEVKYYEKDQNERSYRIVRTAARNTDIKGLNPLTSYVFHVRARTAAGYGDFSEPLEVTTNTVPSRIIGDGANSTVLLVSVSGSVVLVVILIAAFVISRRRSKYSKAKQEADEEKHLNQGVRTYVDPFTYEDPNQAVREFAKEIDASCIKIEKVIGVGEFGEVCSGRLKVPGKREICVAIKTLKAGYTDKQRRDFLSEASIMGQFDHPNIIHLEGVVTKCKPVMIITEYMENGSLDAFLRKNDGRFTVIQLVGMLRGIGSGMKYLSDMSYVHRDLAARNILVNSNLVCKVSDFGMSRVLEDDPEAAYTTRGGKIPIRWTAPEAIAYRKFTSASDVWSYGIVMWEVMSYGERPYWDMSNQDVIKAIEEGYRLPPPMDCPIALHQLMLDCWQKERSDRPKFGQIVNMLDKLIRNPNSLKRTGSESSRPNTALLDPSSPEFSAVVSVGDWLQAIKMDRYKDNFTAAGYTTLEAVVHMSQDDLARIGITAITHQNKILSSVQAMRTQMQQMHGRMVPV
Sequence of Cytochrome P450 2C19 (P33261 whole entry): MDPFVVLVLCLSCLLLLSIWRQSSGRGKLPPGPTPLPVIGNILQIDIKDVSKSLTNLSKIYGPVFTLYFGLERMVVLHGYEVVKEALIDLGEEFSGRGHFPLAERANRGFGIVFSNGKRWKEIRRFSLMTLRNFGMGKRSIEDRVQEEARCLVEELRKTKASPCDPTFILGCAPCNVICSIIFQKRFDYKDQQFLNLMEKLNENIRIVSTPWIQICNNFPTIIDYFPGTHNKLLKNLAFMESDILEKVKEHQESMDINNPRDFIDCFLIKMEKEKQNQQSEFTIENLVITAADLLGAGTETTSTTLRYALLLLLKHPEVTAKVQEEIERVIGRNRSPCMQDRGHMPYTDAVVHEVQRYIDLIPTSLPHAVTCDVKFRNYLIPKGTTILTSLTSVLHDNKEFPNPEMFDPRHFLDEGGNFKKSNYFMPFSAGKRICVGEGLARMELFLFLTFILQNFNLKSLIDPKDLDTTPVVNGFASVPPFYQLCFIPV
Sequence of Induced myeloid leukemia cell differentiation protein Mcl-1 (Q07820 whole entry): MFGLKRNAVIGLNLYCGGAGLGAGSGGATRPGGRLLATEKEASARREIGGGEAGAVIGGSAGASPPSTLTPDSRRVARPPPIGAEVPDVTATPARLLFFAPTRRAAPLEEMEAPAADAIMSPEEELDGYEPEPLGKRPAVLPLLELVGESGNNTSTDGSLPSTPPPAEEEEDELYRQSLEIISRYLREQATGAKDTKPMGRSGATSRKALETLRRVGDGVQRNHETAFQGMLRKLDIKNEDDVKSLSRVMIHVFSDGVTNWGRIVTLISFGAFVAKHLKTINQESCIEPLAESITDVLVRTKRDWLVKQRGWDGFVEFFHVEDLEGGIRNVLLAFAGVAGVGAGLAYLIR
Sequence of Cytochrome P450 2C9 (P11712 whole entry): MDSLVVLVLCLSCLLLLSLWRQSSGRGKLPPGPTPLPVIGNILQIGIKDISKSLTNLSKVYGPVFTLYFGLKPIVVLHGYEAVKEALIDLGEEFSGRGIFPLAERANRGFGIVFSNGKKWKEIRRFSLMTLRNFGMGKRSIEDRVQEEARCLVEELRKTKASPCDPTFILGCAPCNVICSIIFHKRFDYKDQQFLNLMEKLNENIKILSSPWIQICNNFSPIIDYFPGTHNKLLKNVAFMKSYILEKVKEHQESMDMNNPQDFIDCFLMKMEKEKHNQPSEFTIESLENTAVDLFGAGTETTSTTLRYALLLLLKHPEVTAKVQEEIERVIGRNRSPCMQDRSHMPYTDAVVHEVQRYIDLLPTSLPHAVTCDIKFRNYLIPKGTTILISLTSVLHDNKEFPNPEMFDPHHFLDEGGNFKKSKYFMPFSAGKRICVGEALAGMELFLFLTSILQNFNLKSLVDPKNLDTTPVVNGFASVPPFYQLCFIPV
Sequence of Sphingosine 1-phosphate receptor 2 (O95136 whole entry): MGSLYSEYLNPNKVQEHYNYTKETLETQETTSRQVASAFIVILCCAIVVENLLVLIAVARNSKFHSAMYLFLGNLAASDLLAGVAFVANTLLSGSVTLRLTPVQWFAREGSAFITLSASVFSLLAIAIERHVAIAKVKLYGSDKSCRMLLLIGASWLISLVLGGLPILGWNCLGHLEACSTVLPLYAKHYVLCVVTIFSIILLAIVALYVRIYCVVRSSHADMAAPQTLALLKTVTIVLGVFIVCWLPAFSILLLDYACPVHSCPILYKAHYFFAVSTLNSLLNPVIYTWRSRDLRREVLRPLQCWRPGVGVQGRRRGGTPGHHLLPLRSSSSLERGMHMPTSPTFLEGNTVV

Compound: CCC[C@@H](CNC)NC[C@H](Cc1ccccc1)NCCCCc1ccccc1
IC50 [1]: 5.4 µM (active)

Compound: O=C1c2ccccc2C(=O)C1c1ccncc1
IC50 [3]: 18 µM (not active)

Compound: O=C(/C=C\c1cccs1)c1c(O)ccc2ccc(=O)oc12
EC50 [4]: 3.41 µM (active)

Compound: CN1CCc2c(sc3c2C(=O)NC(c2cccs2)N3)C1 (stereo not drawn)
EC50 [5]: > 53 µM (inactive)
IC50 [6]: > 100 µM (not active)

Compound: COc1cc(C(Nc2ccccn2)c2ccc3ccc(C)nc3c2O)cc(OC)c1O (stereo not drawn)
EC50 [7]: 4.68 µM (active)
IC50 (Estrogen receptor beta [8]): > 109 µM (not active)
IC50 (Ephrin type-A receptor 4): 2.02 µM (active)
EC50 [9]: 5.42 µM (inconclusive)
EC50 [10]: 4.22 µM (active)
IC50 [11]: 786 nM (active)
EC50 [12]: > 38 µM (not active)
EC50 [13]: 4.83 µM (active)
IC50 (Estrogen receptor beta [14]): 3.13 µM (active)

The next lines start with the values.

AC50 (Cytochrome P450 2C19): 39.8 µM (inconclusive)
IC50 [2]: > 30 µM (not active)
AC50 (Cytochrome P450 2C9): 28.2 µM (inconclusive)
Compound: O=C(O)c1sc2cc(C(F)(F)F)cnc2c1-c1ccccc1

IC50 [3]: 41.2 µM (not active)
Compound: O=C(CNC(=O)c1ccc(Br)o1)Nc1cccc(-c2cnc3ccccc3n2)c1
